According to patent US20170239212A1, “[…] AND USE THEREOF AS ANTIVIRAL AGENTS” (priority 2014, published 2017):
Where two headings read alike, the source gives them in different places.

How the values were obtained:
[1] = ester bond, 2,4,6-trichlorobenzoyl chloride / Et3N / DMAP, toluene, 40.0 °C, 14.0 h
[2] = system: HIV long terminal repeat (LTR) promoter; assay: HOS LTR stimulation assay (luciferase reporter); type: cell-based; settings: HOS cells
Protocol: In the assay, non T cell derived human osteosarcoma (HOS) cells are transfected with a luciferase reporter under control of an HIV long terminal repeat (LTR) promoter. Compounds that stimulate the HIV LTR promoter will produce luciferase in a dose dependent manner.
(§1) Specifically, EC50 and CC50 values were determined in parallel using 10 concentrations of compound from 3 fold serial dilutions starting a 5 uM as the highest concentration. Cells and media were added to compounds with a final concentration of DMSO of 1% and incubated at 37° C., 5% CO2 for 24, 48 and 72 hours. EC50 was measured by induced luciferase activity detected by the use of the Steady-Glo® Luciferase reagent (PROMEGA) with an EnVision (Perkin-Elmer) plate reader. CC50 was determined by the dose dependent knock down of cellular ATP detected by the use of CellTiter-Glo® Luminescent Cell Viability reagent (PROMEGA) with an EnVision (Perkin-Elmer) plate reader.
The error bars represent the average and the standard error of the mean of at least three independent experiments.

[3] = system: human osteosarcoma (HOS) cells; assay: HOS cell viability (CellTiter-Glo, cellular ATP); type: cell-based; design: unit not given here; settings: knock down of cellular ATP
Protocol: as §1

in vitro = type: cell-based; settings: human; Jurkat cells, knock down of cellular ATP
Protocol: as §1, with “The compounds were also tested in the T cell derived Jurkat cell line transfected with a luciferase reporter under control of an HIV long terminal repeat (LTR) promoter. Specifically,” for “Specifically,”

[4] = system: HIV long terminal repeat (LTR) promoter; assay: cells; type: cell-based; settings: Jurkat cells; for EC50: Human immunodeficiency virus 1, LTR-luciferase, incubated 24, 48 and 72 hours (time of the listed values not stated); for selectivity ratio: human; for selectivity ratio / Selectivity (CC50:EC50): ratio of the CC50 to the EC50
Protocol: as §1, with “The compounds were also tested in the T cell derived Jurkat cell line transfected with a luciferase reporter under control of an HIV long terminal repeat (LTR) promoter. Specifically,” for “Specifically,”

U937 cells [5] = assay: Attachment of U937 cells; type: cell-based, human; settings: 72 hours
Protocol: (§2) U937 cells (Sundstrom, C.; Nilsson, K.: Establishment and characterization of a human histiocytic lymphoma cell line (U-937). Int. J. Cancer 1976, 17: 565-577), purchased from ATCC (Manassas, Va.) and cultured in RPMI-1640 medium supplemented with 10% FBS (ATCC, Manassas, Va.), were plated in 35 mm dishes at a density of 2×10^5 living cells/ml and treated with different concentrations of the drugs or DMSO. After 72 hours, the number of cells in the supernatant (non-attached cells) and the number of attached cells (after trypsinization) were counted using a Beckman particle counter (Beckman Coulter Inc., Fullerton, Calif.). The number of attached cells is expressed as percent of total cells (FIGS. 8-10).
(§3) U937 cells were treated with PMA (0.1-100 nM), bryostatin 1 (1-1000 nM), the indicated compound (1-1000 nM), 10 nM PMA with different concentrations of bryostatin 1 (1-1000 nM) or 10 nM PMA with different concentrations of indicated compound (1-1000 nM) for 72 hours. The number of attached cells and total cells were counted and the attached cells were graphed as percent of total cells. The bars and error bars represent the average and the standard error of the mean of five independent experiment (FIGS. 8-10).
(§4) U937 cells (Sundstrom and Nilsson, 1976), purchased from ATCC (Manassas, Va.) and cultured in RPMI-1640 medium supplemented with 10% FBS (ATCC, Manassas, Va.), were plated in 35 mm dishes at a density of 1×10^5 living cells/ml and treated with different concentrations of the drugs or DMSO. After 72 hours, the number of cells in the supernatant (non-attached cells) and the number of attached cells (after trypsinization) were counted using a particle counter. The number of attached cells is expressed as percent of total cells.
(§5) U937 cells were treated with PMA (0.01-100 nM), bryostatin 1 (0.1-1000 nM), analogue 12 (MERLE 28) (0.1-1000 nM), 10 nM PMA with different concentrations of bryostatin 1 (0.1-1000 nM) or 10 nM PMA with different concentrations of analogue 12 (0.1-1000 nM). The number of attached cells and total cells were counted and the attached cells were graphed as percent of total cells. The bars and error bars represent the average and the standard error of the mean of at least three independent experiments.
as §4
as §3, with “at least three” for “five”, “experiments.” for “experiment (FIGS. 8-10).”

U937 cells [6] = assay: Inhibition of U937 cell proliferation; type: cell-based, human
Protocol: as §2
as §3, with “nM).” for “nM) for 72 hours.”, “attached and non-attached” for “attached”, “was” for “and total cells were”, “number” for “attached cells were graphed as percent”, “cells was expressed as % of control.” for “cells.”, “experiments” for “experiment”
as §4
as §5, with “The numbers” for “The number”, “attached” for “attached cells”, “and non-attached” for “and total”, “the number” for “the attached cells were graphed as percent”, “total cells was expressed as % of control.” for “total cells.”
as §4
U937 cells were treated with PMA (0.1-100 nM), bryostatin 1 (1-1000 nM), the indicated compound (1-1000 nM), 10 nM PMA with different concentrations of bryostatin 1 (1-1000 nM) or 10 nM PMA with different concentrations of indicated compound (1-1000 nM). The number of attached and non-attached cells was counted and the number of total cells was expressed as % of control. The bars and error bars represent the average and the standard error of the mean of at least three independent experiments.

[7] = 10 nM PMA with different concentrations of compound

C=C1C[C@@H]2C[C@@H]3CC(=C)C[C@H](/C=C/C(C)(C)[C@]4(OC)O[C@@H](C/C(=C\C(=O)OC)[C@@H]4OC(C)=O)C[C@H]([C@@H](C)OCOCc4ccccc4)OC(=O)C[C@H](OCc4ccc(OC)cc4)C[C@H](C1)O2)O3
ring closure, yield of all isomers ([1]; from C=C1C[C@H](C[C@@H]2CC(=C)C[C@H](/C=C/C(C)(C)[C@]3(OC)O[C@H](C[C@@H](O)[C@@H](C)OCOCc4ccccc4)C/C(=C\C(=O)OC)[C@@H]3OC(C)=O)O2)O[C@H](C[C@H](CC(=O)O)OCc2ccc(OC)cc2)C1, 0.97 mM, 2 steps): 58%

C=C1C[C@@H]2C[C@@H]3CC(=C)C[C@H](/C=C/C(C)(C)[C@]4(OC)O[C@@H](CCC4=O)C[C@H]([C@@H](C)OCOCc4ccccc4)OC(=O)C[C@H](OCc4ccc(OC)cc4)C[C@H](C1)O2)O3
ring closure, yield of all isomers ([1]; from C=C1C[C@H](C[C@@H]2CC(=C)C[C@H](/C=C/C(C)(C)[C@]3(OC)O[C@H](C[C@@H](O)[C@@H](C)OCOCc4ccccc4)CCC3=O)O2)O[C@H](C[C@H](CC(=O)O)OCc2ccc(OC)cc2)C1, 0.85 mM, 2 steps): 87%

C=C1C[C@@H]2C[C@@H]3CC(=C)C[C@H](/C=C/C(C)(C)[C@]4(O)O[C@@H](C/C(=C\C(=O)OC)[C@@H]4OC(=O)/C=C/C=C/CCC)C[C@H]([C@@H](C)O)OC(=O)C[C@H](O)C[C@H](C1)O2)O3 [MERLE 23]
Max signal (% of control) ([2]; LTR-luciferase signal): 166 % of control
Conc (uM) at Max ([2]; concentration at maximal LTR-luciferase signal): 0.07 µM
EC50 ([2]; Human immunodeficiency virus 1, LTR-luciferase, incubated 24, 48 and 72 hours (time of the listed values not stated), read-out: EC50): 2 nM
CCEC50 [3]: 39.57
CC50 (in vitro): 5 nM
EC50 [4]: 0.2 nM
selectivity ratio [4]: 25

C=C1C[C@@H]2C[C@@H]3CC(=C)C[C@H](/C=C/C(C)(C)[C@]4(OC)O[C@@H](C/C(=C\C(=O)OC)[C@@H]4OC(=O)/C=C/C=C/CCC)C[C@H]([C@@H](C)OCOCc4ccccc4)OC(=O)C[C@H](OCc4ccc(OC)cc4)C[C@H](C1)O2)O3
ring closure, yield of all isomers ([1]; from C=C1C[C@H](C[C@@H]2CC(=C)C[C@H](/C=C/C(C)(C)[C@]3(OC)O[C@H](C[C@@H](O)[C@@H](C)OCOCc4ccccc4)C/C(=C\C(=O)OC)[C@@H]3OC(=O)/C=C/C=C/CCC)O2)O[C@H](C[C@H](CC(=O)O)OCc2ccc(OC)cc2)C1, 0.74 mM, 2 steps): 52%

C=C1CC2C[C@@H](O)CC(=O)O[C@@H]([C@@H](C)O)C[C@@H]3C/C(=C\C(=O)OC)[C@H](OC(C)=O)[C@@](O)(O3)C(C)(C)/C=C/[C@H]3CC(=C)C[C@@H](C[C@@H](C1)O2)O3 [MERLE 35]
CC50 (in vitro): 50 nM
EC50 [4]: 10 nM
Selectivity (CC50:EC50) [4]: greater than one
selectivity ratio [4]: 5

C=C1C[C@H]2C[C@H]3C[C@@H](O[Si](CC)(CC)CC)C[C@@H](C[C@@H](OCc4ccc(OC)cc4)CC(=O)O[C@@H]([C@@H](C)OCOCc4ccccc4)C[C@@H]4C/C(=C\C(=O)OC)[C@H](OC(=O)CCCCCCC)[C@@](OC)(O4)C(C)(C)/C=C/[C@@H](C1)O2)O3
ring closure, yield of all isomers ([1]; from C=C1C[C@@H](C[C@H]2C[C@@H](O[Si](CC)(CC)CC)C[C@@H](C[C@H](CC(=O)O)OCc3ccc(OC)cc3)O2)O[C@@H](/C=C/C(C)(C)[C@]2(OC)O[C@H](C[C@@H](O)[C@@H](C)OCOCc3ccccc3)C/C(=C\C(=O)OC)[C@@H]2OC(=O)CCCCCCC)C1, 0.79 mM): 91%

C=C1C[C@H]2CC3(O)O[C@H](C[C@@H](O)CC(=O)O[C@@H]([C@@H](C)O)C[C@@H]4C/C(=C\C(=O)OC)[C@H](OC(=O)/C=C/C=C/CCC)[C@@](O)(O4)C(C)(C)/C=C/[C@@H](C1)O2)C[C@H](OC(C)=O)C3(C)C [MERLE 28]
Block of PMA-induced attachment of U937 cells (U937 cells [5]; [7]): blocks the effect of the phorbol ester when the two agents are administered together
Attachment of U937 cells (attached cells as percent of total) (U937 cells [5]; compound alone): approaches that of bryostatin 1 itself
Block of PMA inhibition of U937 cell proliferation (U937 cells [6]; [7]): Both of these aspects of bryostatin 1 induced biological response are captured
Inhibition of U937 cell proliferation (total cells as % of control) (U937 cells [6]; compound alone, 72 hours): very similar to those for bryostatin 1

C=C1CC2C[C@@H](O)CC(=O)O[C@@H]([C@@H](C)O)C[C@@H]3C/C(=C\C(=O)OC)[C@H](OC(=O)CCCCCN(C)C)[C@@](O)(O3)C(C)(C)/C=C/[C@H]3CC(=C)C[C@@H](C[C@@H](C1)O2)O3 [MERLE 37]
CC50 (in vitro): 550 nM
EC50 [4]: 80 nM
Selectivity (CC50:EC50) [4]: greater than one
selectivity ratio [4]: 6.9

C=C1C[C@H]2C[C@]3(OC)O[C@H](C[C@@H](O[Si](CC)(CC)CC)CC(=O)O[C@@H]([C@@H](C)OCOCc4ccccc4)C[C@@H]4C/C(=C\C(=O)OC)[C@H](OC(=O)/C=C/C=C/CCC)[C@@](OC)(O4)C(C)(C)/C=C/[C@@H](C1)O2)C[C@H](OC(C)=O)C3(C)C
ring closure, yield of all isomers ([1]; from C=C1C[C@@H](C[C@]2(OC)O[C@H](C[C@H](CC(=O)O)O[Si](CC)(CC)CC)C[C@H](OC(C)=O)C2(C)C)O[C@@H](/C=C/C(C)(C)[C@]2(OC)O[C@H](C[C@@H](O)[C@@H](C)OCOCc3ccccc3)C/C(=C\C(=O)OC)[C@@H]2OC(=O)/C=C/C=C/CCC)C1, 0.62 mM, 2 steps): 62%
